The values below come from US9758505B2, “3-(indol-3-yl)-pyridine derivatives, pharmaceutical compositions and methods for use” (ITEOS THERAPEUTICS, priority 2014, dated 2017).

Structures can show the parent of a compound that is named as a salt.

The term IC50 denotes the point on the concentration scale where inhibition reaches its midpoint.

In assay [1] the target is T1, human TDO2 (Homo sapiens (Human), UniProt P48775). Kind of assay: Assay for TDO2 enzymatic activity determination. It is filed as biochemical. The note with it: human recombinant TDO2, L-Trp 1 mM, kynurenine absorbance at 480 nm. The procedure:
The compounds of formula I inhibit the enzymatic activity of human TDO2.
To measure the TDO2 activity, the procedure described in Dolusic et al. J. Med. Chem.; 2011, 54, […] was adapted: the reaction mixture contained (final concentrations) potassium phosphate buffer (50 mM, pH 7.5), ascorbic acid (0.25 M), methylene blue (0.125 μM), catalase (40 units/mL, from bovine liver, Sigma), and human recombinant TDO2 enzyme (prepared as described in Dolusic et al. J. Med. Chem.; 2011, 54, 5320-5334; 0.9 μg) without or with the compounds of the present invention at the indicated concentrations (total volume 112.5 μL). The reaction was initiated by the addition of 37.5 μL of L-Trp (final concentration 1 mM) at room temperature. The reaction was conducted at room temperature during one hour and stopped by the addition of 30 μL of 30% (w/v) trichloroacetic acid.
To convert N-formylkynurenine into kynurenine, the reaction mixture was incubated at 65° C. for 30 min. Then 150 μL of the reaction mixture was mixed with 120 μL of 2.5% (w/v) 4-(dimethylamino)-benzaldehyde in acetic acid and incubated for 5 min at room temperature. Kynurenine concentrations were determined by measuring the absorbance at 480 nm. A standard curve was made with pure kynurenine. The TDO activity was measured as described above using ten serial concentrations of the compounds of the present invention. Data were fitted using the Prism™ software (GraphPad Software, Inc.) using standard software configurations.

In assay [2] the target is T1, human TDO2. Kind of assay: Cellular assay for TDO2 activity, hTDO2-overexpressing P815 cells. It is filed as cell-based. The note with it: murine mastocytoma P815 cells overexpressing hTDO2, overnight incubation, kynurenine in supernatant. The procedure:
The compounds of Formula I inhibit the activity of human TDO2 in cells.
The assay (adapted from Pilotte L et al., Proc Natl Acad Sci USA, 2012, 109(7), 2497-502) was performed in 96-well flat bottom plates seeded with murine mastocytoma P815 cells overexpressing hTDO2 (prepared as described in Pilotte et al., PNAS, 2012, 109(7), 2497-2502), at a concentration of 5×10^4 cells/well in a final volume of 200 μL. To determine TDO or IDO activity, the cells were incubated overnight at 37° C. at 5% CO2 in IMDM (Invitrogen) supplemented with 2% FBS and 2% penicillin/streptomycin in the presence of the compounds of the present invention, at different concentrations. The cells may be obtained from the American Type Cuylture Collecion [ATCC® TIB-64™ or commercially, e.g., from Sigma-Aldrich or Life Technologies.]
(§1) The plates were then centrifuged 5 min at 1000 rpm, and 100 μL of the supernatant were collected in a conical plate, 30 uL of TCA 30% were added and a further centrifugated at 3000×g for 10 minutes. 100 μL of the supernatant were collected in a flat bottomed plate and 100 μL of 2% (w/v) 4-(dimethylamino)-benzaldehyde in acetic acid and incubated for 5 min at room temperature. Kynurenine concentrations were determined by measuring the absorbance at 480 nm. A standard curve was made with pure kynurenine. The TDO activity was measured as described above using ten serial concentrations of the compounds of the present invention. Data were fitted using the Prism™ software (GraphPad Software, Inc.) using standard software configurations.

Assay [3] addresses T1, human TDO2. Kind of assay: Cellular assay for TDO2 activity, A172 cells naturally expressing hTDO2. The class given is cell-based. The following applies: human glioblastoma A172 cells, overnight incubation, kynurenine in supernatant. The procedure:
A172 is a cell line derived from human brain glioblastoma cells.
To determine TDO, the cells were incubated overnight at 37° C. at 5% CO2 in IMDM (Invitrogen) supplemented with 2% FBS and 2% penicillin/streptomycin in the presence of the compounds of the present invention, at different concentrations.
as §1

T1 sequence (P48775 whole entry): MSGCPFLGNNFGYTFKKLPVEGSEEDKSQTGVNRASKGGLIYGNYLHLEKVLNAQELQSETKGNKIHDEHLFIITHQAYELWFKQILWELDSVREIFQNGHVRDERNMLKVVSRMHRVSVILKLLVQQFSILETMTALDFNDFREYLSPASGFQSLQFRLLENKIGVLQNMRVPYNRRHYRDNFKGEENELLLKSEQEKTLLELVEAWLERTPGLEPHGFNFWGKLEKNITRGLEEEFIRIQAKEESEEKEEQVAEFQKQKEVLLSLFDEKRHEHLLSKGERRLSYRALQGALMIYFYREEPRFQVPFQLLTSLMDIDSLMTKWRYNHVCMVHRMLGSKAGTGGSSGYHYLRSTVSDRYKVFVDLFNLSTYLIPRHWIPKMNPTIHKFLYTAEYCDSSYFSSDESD

In the case of `Cc1ccc(-c2c[nH]c3cc(F)ccc23)cn1` [Example 1, 6-fluoro-3-(6-methylpyridin-3-yl)-1H-indole], the IC50 in assay [1] came out at 370 nM; in assay [2], 180 nM. Take `Fc1ccc2c(-c3ccc(OC4CCNCC4)nc3)c[nH]c2c1` [Example 2, 6-fluoro-3-(6-(piperidin-4-yloxy)pyridin-3-yl)-1H-indole]: the half-inhibitory concentration (IC50) in assay [1] is 560 nM. For the compound `CN1CCC(Oc2ccc(-c3c[nH]c4cc(F)ccc34)cn2)CC1` [Example 3, 6-fluoro-3-(6-(1-methylpiperidin-4-yloxy)pyridin-3-yl)-1H-indole], in assay [1], the IC50 was 1200 nM.

Turning to `CN(C)CCOc1ccc(-c2c[nH]c3cc(F)ccc23)cn1` [Example 4, 2-(5-(6-fluoro-1H-indol-3-yl)pyridin-2-yloxy)-N,N-dimethylethanamine], the half-inhibitory concentration (IC50) in assay [1] was 39000 nM; in assay [2] it was 680 nM. Turning to `COc1ccc(-c2c[nH]c3cc(F)ccc23)cn1` [Example 5, 6-fluoro-3-(6-methoxypyridin-3-yl)-1H-indole], the values for the half-inhibitory concentration (IC50) in assay [1] and in assay [2] were 730 nM and 120 nM, respectively.

On to `CS(=O)(=O)N1CCC(Oc2ccc(-c3c[nH]c4cc(F)ccc34)cn2)CC1` [Example 6, 6-fluoro-3-(6-(1-(methylsulfonyl)piperidin-4-yloxy)pyridin-3-yl)-1H-indole], for which the IC50 in assay [1] turned out to be 1300 nM.

On to `CN(C)c1ccc(-c2c[nH]c3cc(F)ccc23)cn1` [Example 7, 5-(6-fluoro-1H-indol-3-yl)-N,N-dimethylpyridin-2-amine], for which the figures for the 50% inhibitory concentration (IC50) in assay [1] and in assay [2] were 380 nM and 320 nM, respectively. In the case of `CC(=O)N(C)c1ccc(-c2c[nH]c3cc(F)ccc23)cn1` [Example 8, N-(5-(6-fluoro-1H-indol-3-yl)pyridin-2-yl)-N-methylacetamide], in assay [2], the IC50 turned out to be 490 nM. `Nc1ccc(-c2c[nH]c3cc(F)c(F)cc23)cn1` [Example 16, 5-(5,6-difluoro-1H-indol-3-yl)pyridin-2-amine]: the IC50 in assay [1] turned out to be 1600 nM. Take `CCN1CCC(Nc2ccc(-c3c[nH]c4cc(F)ccc34)cn2)CC1` [Example 18, N-(1-ethylpiperidin-4-yl)-5-(6-fluoro-1H-indol-3-yl)pyridin-2-amine]: the 50% inhibitory concentration (IC50) in assay [1] is 4800 nM. On the same count and under the same terms, next, `CS(=O)(=O)N1CCC(Nc2ccc(-c3c[nH]c4cc(F)ccc34)cn2)CC1` [Example 19, 5-(6-fluoro-1H-indol-3-yl)-N-(1-(methylsulfonyl)piperidin-4-yl)pyridin-2-amine]: 650 nM. Still for that read-out and setting: next, `CC(=O)NCCCNc1ccc(-c2c[nH]c3cc(F)ccc23)cn1` [Example 20, N-(3-(5-(6-fluoro-1H-indol-3-yl)pyridin-2-ylamino)propyl)acetamide]: 870 nM.

Turning to `NS(=O)(=O)CCCNc1ccc(-c2c[nH]c3cc(F)ccc23)cn1` [Example 23, 3-((5-(6-fluoro-1H-indol-3-yl)pyridin-2-yl)amino)propane-1-sulfonamide], the IC50 stood at 430 nM in assay [2] and 490 nM in assay [3]. With `CS(=O)(=O)NCCNc1ccc(-c2c[nH]c3cc(F)ccc23)cn1` [Example 26, N-(2-(5-(6-fluoro-1H-indol-3-yl)pyridin-2-ylamino)ethyl)methanesulfonamide hydrochloride], the IC50 in assay [1] was 710 nM. Consider `NS(=O)(=O)CCNc1ccc(-c2c[nH]c3cc(F)ccc23)cn1` [Example 29, 2-((5-(6-fluoro-1H-indol-3-yl)pyridin-2-yl)amino)ethanesulfonamide], for which the IC50 in assay [2] worked out at 240 nM. With `O=C(Nc1ccc(-c2c[nH]c3cc(F)ccc23)cn1)C1CCNCC1` [Example 35, N-(5-(6-fluoro-1H-indol-3-yl)pyridin-2-yl)piperidine-4-carboxamide], the IC50 stood at 250 nM in assay [2] and 530 nM in assay [3]. For `C[C@H](N)C(=O)Nc1ccc(-c2c[nH]c3cc(F)ccc23)cn1` [Example 37, (S)-2-amino-N-(5-(6-fluoro-1H-indol-3-yl)pyridin-2-yl)propanamide], the concentration for half-maximal inhibition (IC50) in assay [2] turned out to be 450 nM. The compound `NCC(=O)Nc1ccc(-c2c[nH]c3cc(F)ccc23)cn1` [Example 39, 2-amino-N-(5-(6-fluoro-1H-indol-3-yl)pyridin-2-yl)acetamide] returned a concentration for half-maximal inhibition (IC50) in assay [2] of 350 nM.

As to `[O-][n+]1cccc(-c2c[nH]c3cc(F)ccc23)c1` [Example 49, 3-(6-fluoro-1H-indol-3-yl)pyridine 1-oxide], the IC50 in assay [1] stood at 11000 nM.

`CC(=O)NCCNc1ccc(-c2c[nH]c3cc(F)ccc23)cn1` [Example 50, N-(2-((5-(6-fluoro-1H-indol-3-yl)pyridin-2-yl)amino)ethyl)acetamide] gave a concentration for half-maximal inhibition (IC50) in assay [2] of 1000 nM. The same measure, in the same setting: next, `NCC(=O)NCCNc1ccc(-c2c[nH]c3cc(F)ccc23)cn1` [Example 51, 2-amino-N-(2-((5-(6-fluoro-1H-indol-3-yl)pyridin-2-yl)amino)ethyl)acetamide]: 850 nM; `O=C(Nc1ccc(-c2c[nH]c3cc(F)ccc23)cn1)C1CC1` [Example 52, N-(5-(6-fluoro-1H-indol-3-yl)pyridin-2-yl)cyclopropanecarboxamide]: 120 nM. `CN(c1ccc(-c2c[nH]c3cc(F)ccc23)cn1)S(C)(=O)=O` [Example 54, N-(5-(6-fluoro-1H-indol-3-yl)pyridin-2-yl)-N-methylmethanesulfonamide]: the concentration for half-maximal inhibition (IC50) in assay [2] was determined as 160 nM; in assay [3], 420 nM. Taken in the same sequence, the figures for `NCCS(=O)(=O)NC1CCN(c2ccc(-c3c[nH]c4cc(F)ccc34)cn2)CC1` [Example 55, 2-amino-N-(1-(5-(6-fluoro-1H-indol-3-yl)pyridin-2-yl)piperidin-4-yl)ethanesulfonamide] were 290 nM and 990 nM. Taken in the same sequence, the figures for `CN(C)CCS(=O)(=O)NC1CCN(c2ccc(-c3c[nH]c4cc(F)ccc34)cn2)CC1` [Example 56, 2-(dimethylamino)-N-(1-(5-(6-fluoro-1H-indol-3-yl)pyridin-2-yl)piperidin-4-yl)ethanesulfonamide] were 240 nM and 640 nM. Consider `CS(=O)(=O)N1CCC(C(=O)Nc2ccc(-c3c[nH]c4cc(F)ccc34)cn2)CC1` [Example 61, N-(5-(6-fluoro-1H-indol-3-yl)pyridin-2-yl)-1-(methylsulfonyl)piperidine-4-carboxamide], for which the figures for the IC50 in assay [2] and in assay [3] were 170 nM and 990 nM, respectively.

For the compound `O=c1ccc(-c2c[nH]c3cc(F)ccc23)c[nH]1` [Example 69, 5-(6-fluoro-1H-indol-3-yl)pyridin-2(1H)-one], the IC50 in assay [2] was found to be 260 nM; in assay [3], 370 nM.

For `O=C1NCCN1c1ccc(-c2c[nH]c3cc(F)ccc23)cn1` [Example 78, 1-(5-(6-fluoro-1H-indol-3-yl)pyridin-2-yl)imidazolidin-2-one], the figures for the concentration for half-maximal inhibition (IC50) in assay [1] and in assay [3] were 16000 nM and 490 nM, respectively.

For `NC(=O)CCNS(=O)(=O)c1ccc(-c2c[nH]c3cc(F)ccc23)cn1` [Example 99, 3-(5-(6-fluoro-1H-indol-3-yl)pyridine-2-sulfonamido)propanamide], half-maximal inhibition in assay [3] (IC50) required 370 nM. Compound `Fc1ccc2c(-c3ccc(NC4CCOCC4)nc3)c[nH]c2c1` [Example 100, 5-(6-fluoro-1H-indol-3-yl)-N-(tetrahydro-2H-pyran-4-yl)pyridin-2-amine] displayed an IC50 in assay [3] of 620 nM.

In assay [3], `CN(CCC(N)=O)S(=O)(=O)c1ccc(-c2c[nH]c3cc(F)ccc23)cn1` [Example 101, 3-(5-(6-fluoro-1H-indol-3-yl)-N-methylpyridine-2-sulfonamido)propanamide] registered a 50% inhibitory concentration (IC50) of 360 nM.
